Data taken from PubChem BioAssay AID330 (DTP/NCI, 2004).
Values joined by “and” are separate entries in the source; they are usually repeats but may differ in a detail not shown here. Equal values may be shown once. Toxic doses and inconclusive results are not listed. Peptide text beside a SMILES is read from it.

System: P388 leukemia ip, CD2F1 mice, survival T/C
Assay: NCI In Vivo Anticancer Drug Screen. Data for tumor model P388 Leukemia (intraperitoneal) in CD2F1 (CDF1) mice
Settings: endpoint: median survival time, higher = longer survival
Procedure, shortened: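 Mice carrying the transplanted tumor received test compound or vehicle. Survival was recorded in each group, and the value is the treated-group measurement divided by that of the vehicle-treated control group.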

[1] = dose: 50.0 mg/kg/injection, schedule: Q01DX009 (ip), vehicle: saline with Tween-80
[2] = dose: 100.0 mg/kg/injection, schedule: Q01DX009 (ip), vehicle: saline with Tween-80
[3] = dose: 200.0 mg/kg/injection, schedule: Q01DX009 (ip), vehicle: saline with Tween-80
[4] = dose: 50.0 mg/kg/injection, schedule: Q01DX005 (ip), vehicle: Klucel (hydroxypropylcellulose) (HPC)
[5] = dose: 100.0 mg/kg/injection, schedule: Q01DX005 (ip), vehicle: Klucel (hydroxypropylcellulose) (HPC)
[6] = dose: 200.0 mg/kg/injection, schedule: Q01DX005 (ip), vehicle: Klucel (hydroxypropylcellulose) (HPC)
[7] = dose: 50.0 mg/kg/injection, schedule: Q01DX009 (ip), vehicle: Klucel (hydroxypropylcellulose) (HPC)
[8] = dose: 100.0 mg/kg/injection, schedule: Q01DX009 (ip), vehicle: Klucel (hydroxypropylcellulose) (HPC)
[9] = dose: 200.0 mg/kg/injection, schedule: Q01DX009 (ip), vehicle: Klucel (hydroxypropylcellulose) (HPC)
[10] = dose: 60.0 mg/kg/injection, schedule: Q01DX005 (ip), vehicle: saline with Tween-80
[11] = dose: 120.0 mg/kg/injection, schedule: Q01DX005 (ip), vehicle: saline with Tween-80
[12] = dose: 240.0 mg/kg/injection, schedule: Q01DX005 (ip), vehicle: saline with Tween-80
[13] = dose: 50.0 mg/kg/injection, schedule: Q01DX005 (ip), vehicle: saline
[14] = dose: 100.0 mg/kg/injection, schedule: Q01DX005 (ip), vehicle: saline
[15] = dose: 200.0 mg/kg/injection, schedule: Q01DX005 (ip), vehicle: saline

CC(C)(CCC(C)(C)NCCCN)NCCCN
T/C (dose: 3.13 mg/kg/injection, schedule: Q01DX009 (ip), vehicle: water): 115 % of control | T/C (dose: 6.25 mg/kg/injection, schedule: Q01DX009 (ip), vehicle: water): 112 % of control | T/C (dose: 12.5 mg/kg/injection, schedule: Q01DX009 (ip), vehicle: water): 102 % of control | T/C (dose: 25.0 mg/kg/injection, schedule: Q01DX009 (ip), vehicle: water): 103 % of control | T/C (dose: 50.0 mg/kg/injection, schedule: Q01DX009 (ip), vehicle: water): 97 % of control

COn1cc(C(=O)O)c(=O)c2c3sc(=O)n(C)c3ccc21
T/C [1]: 101 % of control | T/C [2]: 94 % of control | T/C [3]: 99 % of control

O=Cc1ccc(N2OC3C(=O)N(c4ccccc4)C(=O)C3C2c2ccc([N+](=O)[O-])cc2)cc1 (centres undefined)
T/C [4]: 96 % of control | T/C [5]: 92 % of control | T/C [6]: 97 % of control

CCCC[N+]1(C)CCC(OC(=O)C(O)(c2ccccc2)C2CCCC2)C1 (centres undefined)
T/C (dose: 12.5 mg/kg/injection, schedule: Q01DX009 (ip), vehicle: Klucel (hydroxypropylcellulose) (HPC)): 95 % of control | T/C (dose: 25.0 mg/kg/injection, schedule: Q01DX009 (ip), vehicle: Klucel (hydroxypropylcellulose) (HPC)): 90 % of control | T/C [7]: 98 % of control and 89 % of control

C=CCc1c(O)c(OC)cc2c1C(=O)CCCC2
T/C [8]: 100 % of control | T/C [9]: 94 % of control | T/C (dose: 400.0 mg/kg/injection, schedule: Q01DX009 (ip), vehicle: Klucel (hydroxypropylcellulose) (HPC)): 94 % of control

CNC(=O)Nc1ccnc2ccc3c(ncn3C(=O)NC)c12
T/C (dose: 100.0 mg/kg/injection, schedule: Q01DX001 (ip), vehicle: saline with Tween-80): 104 % of control | T/C (dose: 200.0 mg/kg/injection, schedule: Q01DX001 (ip), vehicle: saline with Tween-80): 98 % of control

O=C1OC2C(O)C(N(O)c3ccccc3)OC2[C@@H]1O (some centres undefined)
T/C [10]: 100 % of control | T/C [11]: 106 % of control | T/C [12]: 106 % of control

C[Si](C)(C)C#CCO
T/C (dose: 50.0 mg/kg/injection, schedule: Q01DX005 (ip), vehicle: saline with Tween-80): 101 % of control | T/C (dose: 100.0 mg/kg/injection, schedule: Q01DX005 (ip), vehicle: saline with Tween-80): 100 % of control | T/C (dose: 200.0 mg/kg/injection, schedule: Q01DX005 (ip), vehicle: saline with Tween-80): 105 % of control

O=C(Nc1ccccc1Br)c1cccc([N+](=O)[O-])c1O
T/C [1]: 107 % of control | T/C [2]: 98 % of control | T/C [3]: 97 % of control

CC(=O)[O][Hg][O]C(C)=O
T/C (dose: 1.25 mg/kg/injection, schedule: Q01DX009 (ip), vehicle: saline with Tween-80): 95 % of control

COc1cc2c(cc1OC)C(Cc1ccccc1NC(=O)c1ccc(C(=O)Nc3ccccc3CC3c4cc(OC)c(OC)cc4CCN3C)cc1)N(C)CC2 (centres undefined)
T/C [10]: 89 % of control | T/C [11]: 88 % of control | T/C [12]: 94 % of control

CSc1nc(Cl)cc(=O)n1C
T/C (dose: 6.25 mg/kg/injection, schedule: Q01DX005 (ip), vehicle: Klucel (hydroxypropylcellulose) (HPC)): 104 % of control | T/C (dose: 12.5 mg/kg/injection, schedule: Q01DX005 (ip), vehicle: Klucel (hydroxypropylcellulose) (HPC)): 105 % of control | T/C (dose: 25.0 mg/kg/injection, schedule: Q01DX005 (ip), vehicle: Klucel (hydroxypropylcellulose) (HPC)): 100 % of control and 92 % of control

Cc1c(O)c(O)c2c(c1O)N=C(Cl)/C2=C\N=NC(N)=S
T/C (dose: 100.0 mg/kg/injection, schedule: Q01DX001 (ip), vehicle: Klucel (hydroxypropylcellulose) (HPC)): 99 % of control | T/C (dose: 200.0 mg/kg/injection, schedule: Q01DX001 (ip), vehicle: Klucel (hydroxypropylcellulose) (HPC)): 95 % of control | T/C (dose: 400.0 mg/kg/injection, schedule: Q01DX001 (ip), vehicle: Klucel (hydroxypropylcellulose) (HPC)): 106 % of control

C=Cc1cc(OC)c2c(c1)c(=O)oc1c2cc(OC)c2c(O)ccc(C3OC(C)C(O)C(C)(O)C3O)c21 (centres undefined)
T/C (dose: 1.56 mg/kg/injection, schedule: Q01DX005 (ip), vehicle: DMSO): 115 % of control | T/C (dose: 3.12 mg/kg/injection, schedule: Q01DX005 (ip), vehicle: DMSO): 118 % of control | T/C (dose: 12.5 mg/kg/injection, schedule: Q01DX005 (ip), vehicle: DMSO): 150 % of control | T/C (dose: 25.0 mg/kg/injection, schedule: Q01DX005 (ip), vehicle: DMSO): 150 % of control | T/C (dose: 50.0 mg/kg/injection, schedule: Q01DX005 (ip), vehicle: DMSO): 169 % of control

S=C1SCN(Cc2ccco2)CN1Cc1ccco1
T/C [1]: 94 % of control | T/C [2]: 94 % of control

O=C(/C=C/c1ccccc1)N1CCCCC1
T/C [2]: 90 % of control | T/C [3]: 95 % of control | T/C (dose: 400.0 mg/kg/injection, schedule: Q01DX009 (ip), vehicle: saline with Tween-80): 95 % of control

Cc1cc(Nc2ccc(O)cc2)nc(Nc2ccc(O)cc2)n1
T/C [10]: 99 % of control | T/C [11]: 99 % of control | T/C [12]: 103 % of control

O=C1OCc2c1[nH]c(=O)[nH]c2=O
T/C (dose: 6.25 mg/kg/injection, schedule: Q01DX009 (ip), vehicle: distilled water + Tween-80): 105 % of control | T/C (dose: 12.5 mg/kg/injection, schedule: Q01DX009 (ip), vehicle: distilled water + Tween-80): 96 % of control | T/C (dose: 25.0 mg/kg/injection, schedule: Q01DX009 (ip), vehicle: distilled water + Tween-80): 110 % of control | T/C (dose: 50.0 mg/kg/injection, schedule: Q01DX009 (ip), vehicle: distilled water + Tween-80): 100 % of control | T/C (dose: 100.0 mg/kg/injection, schedule: Q01DX009 (ip), vehicle: distilled water + Tween-80): 105 % of control and 109 % of control | T/C (dose: 200.0 mg/kg/injection, schedule: Q01DX009 (ip), vehicle: distilled water + Tween-80): 98 % of control | T/C (dose: 400.0 mg/kg/injection, schedule: Q01DX009 (ip), vehicle: distilled water + Tween-80): 90 % of control

O=C1CNC(=O)c2cc(Cl)ccc2N1
T/C [7]: 103 % of control | T/C [8]: 97 % of control | T/C [9]: 100 % of control

N/C=N/OCc1ccccc1
T/C [13]: 101 % of control | T/C [14]: 104 % of control | T/C [15]: 105 % of control

CCn1c(-c2c(Cl)cc(O)cc2Cl)cc2c(Cl)cc(O)cc21
T/C (dose: 60.0 mg/kg/injection, schedule: Q01DX005 (ip), vehicle: Klucel (hydroxypropylcellulose) (HPC)): 87 % of control | T/C (dose: 120.0 mg/kg/injection, schedule: Q01DX005 (ip), vehicle: Klucel (hydroxypropylcellulose) (HPC)): 92 % of control

COc1cc2c(c(-c3cn(C)c4ccccc34)c1OC)OCO2
T/C [10]: 97 % of control | T/C [11]: 98 % of control | T/C [12]: 97 % of control

O=c1c2ccccc2n(-c2ccccc2)c2cc(Cl)ccc12
T/C [4]: 100 % of control | T/C [5]: 102 % of control | T/C [6]: 100 % of control

COC(=O)C1(C(=O)OC)ON1C(C)C (centres undefined)
T/C (dose: 60.0 mg/kg/injection, schedule: Q01DX005 (ip), vehicle: saline): 98 % of control | T/C (dose: 120.0 mg/kg/injection, schedule: Q01DX005 (ip), vehicle: saline): 94 % of control | T/C (dose: 240.0 mg/kg/injection, schedule: Q01DX005 (ip), vehicle: saline): 116 % of control

CCC(C)C(NC(=O)C(N)CCCN=C(N)N)C(=O)O (stereo not drawn) (H-Arg-Ile-OH; configuration not given here)
T/C [4]: 98 % of control | T/C [5]: 100 % of control | T/C [6]: 101 % of control

CCOc1cc2c(=O)[nH]cnc2c(OCC)c1OCC
T/C [1]: 106 % of control | T/C [2]: 100 % of control | T/C [3]: 98 % of control

C[C@]12CC[C@H]3[C@@H](CC[C@H]4N(CCCl)CCC[C@]34C)[C@@H]1CC[C@@H]2O
T/C (dose: 25.0 mg/kg/injection, schedule: Q01DX001 (ip), vehicle: saline): 108 % of control

CC(C)(C)OC(=O)NC(Cc1cnc[nH]1)C(=O)O (centres undefined)
T/C [4]: 90 % of control | T/C [5]: 99 % of control | T/C [6]: 98 % of control

CC1=Nc2ccc(Cl)cc2N=C(C)C1
T/C (dose: 100.0 mg/kg/injection, schedule: Q01DX001 (ip), vehicle: saline): 106 % of control | T/C (dose: 200.0 mg/kg/injection, schedule: Q01DX001 (ip), vehicle: saline): 107 % of control | T/C (dose: 400.0 mg/kg/injection, schedule: Q01DX001 (ip), vehicle: saline): 100 % of control

O=[N+]([O-])c1cc(Cl)c(Cl)cc1Cl
T/C [1]: 109 % of control | T/C [2]: 100 % of control | T/C [3]: 104 % of control

CN1NC(C2NN(C)C(=O)N(C)N2)NN(C)C1=O
T/C [13]: 102 % of control | T/C [14]: 102 % of control | T/C [15]: 107 % of control
